Data published in patent US8802723B2, “Metabolic syndrome-improving agent and medicine, supplement, functional food and food additive containing the same” (ARKRAY, Inc., priority 2005, dated 2014).

Tested on: VLDL secretion in HepG2 cells
Assay: VLDL secretion inhibition experiment in HepG2 cells (apoB100 ELISA)
Format: cell-based, human
Settings: for VLDL secretion ratio (%): HepG2, 30 hours, measurement group/control group, control (DMSO) = 100, average ± standard error
Procedure: FCS, a non-essential amino acid, sodium pyruvate and a glutamine solution were mixed such that the final concentrations of the FCS, the non-essential amino acid, the sodium pyruvate and the glutamine solution respectively were 10%, 1%, 1 mM and 2 mM, and added to an MEM medium (manufactured by SIGMA). They were mixed aseptically on a clean bench. In a 100 mm/Collagen-Coated Dish (trade name, manufactured by Iwaki Glass Works, Co.), the medium of HepG2 cells (human hepatic cells) that had been cultured to 80% to 90% confluence was removed with a pipette and washed with 2 mL of 1×PBS. After adding 2 mL of trypsin-EDTA and rotating the above-noted dish slowly so that trypsin-EDTA spread over the entire cells, this trypsin-EDTA was removed with a pipette. The dish was allowed to stand still for 15 minutes in a CO2 incubator (37° C., 5%), and then 4 mL of a growth medium was added to this dish, followed by mixing by pipetting. Then, 2 mL of this mixture was added to each of two dishes to which 3 mL of a growth medium was added in advance. These dishes were covered with lids and moved crisscross so as to mix the content. The cells were checked using a microscope (manufactured by Olympus Corporation) and cultured in a CO2 incubator (37° C., 5%). Three or four days later, after checking that 80% to 90% confluence was achieved using the microscope, subculture was carried out in a similar manner, followed by cell culture.
First, a VLDL standard solution was prepared. The VLDL standard solution was prepared by diluting 1.169 mg/mL of human VLDL standard (trade name, manufactured by CHEMICON International, Inc.) with a growth medium. The dilution factors were 100, 1000, 10000, 100000 and 1000000.
A sandwich ELISA that recognized human […] in the VLDL as an antigen was used. First, 100 μL of Moab×LDL Apolipoprotein B (ApoB) (manufactured under MONOSAN®) was dispensed in each well of ELISA PLATE, and the plate was sealed with a sterile seal and then allowed to stand still at 4° C. overnight. In the following, all the dispensing mentioned is for a single well. On the next day, 200 μL of Zepto Block (trade name, manufactured by ZeptoMetrix Corporation) was dispensed, and then the above-noted plate was sealed and allowed to stand still for 2 hours at room temperature for blocking. Subsequently, 100 μL of the medium and the VLDL standard solution were dispensed, and then the above-noted plate was sealed and allowed to stand still for 1 hour at room temperature. Washing with 200 μL of PBST and absorption using an aspirator were carried out five times in total. […] 100 μL of 1M phosphoric acid solution was added to the above-noted mixture solution, and the absorbance at 450 nm was measured using wallac ARVOsx (trade name, PerkinElmer Life Sciences, PerkinElmer, Inc.). […]

## CC(C)=CCC/C(C)=C/COc1ccc2ccc(=O)oc2c1 [Aurapten, aurapten]
10-50 μM, degree of inhibition increased as concentration rose
  effect on VLDL secretion (in words): VLDL secretion was inhibited
Aurapten 10 μM
  VLDL secretion ratio (%): 63.1 ± 5.31%
Aurapten 20 μM
  VLDL secretion ratio (%): 61.6 ± 2.21%
Aurapten 50 μM
  VLDL secretion ratio (%): 45.6 ± 4.04%
